The values that follow come from US7238716B2, “Alkanoic acid derivatives process for their production and use thereof” (Takeda Pharmaceuticals Company Limited, priority 2000, dated 2007).

Structures are written as SMILES.

The test system of data set [1] is KKA^y mice. The data set can be described thus: Total cholesterol lowering action and plasma anti-arteriosclerosis index enhancing action in mice (Test Example 2). Type of data set: in vivo. As to conditions: Mus musculus, po, 96 h, four days; for change in vivo at 0.005 % / change in vivo at 0.01 %: percent increase of [(HDL cholesterol/total cholesterol)×100] vs non-administration group; for change in vivo at 0.005 % / inhibition in vivo at 0.005 %: 0.005% in powdery diet; for inhibition in vivo at 0.005 % / inhibition in vivo at 0.01 %: percent reduction of plasma total cholesterol level vs non-administration group; for change in vivo at 0.01 % / inhibition in vivo at 0.01 %: 0.01% in powdery diet. An excerpt: Test compounds were mixed in a powdery diet (CE-2, Japan Clea) the concentration of 0.01% (compounds of Examples 7, 26, 29 and 32) or 0.005% (compounds of Examples 1, 11, 15, 18, 24, 36, 37, 41, 48, 50, 51, 52, 58, 62, 79, 88, 91, 92, 93, 97, 107, 110, 129 and 130), and freely given to KKA^y mice (11 to 12 weeks old, 5 mice per group), a model of type-2 diabetes mellitus, for four days. During this period, water was given freely. Blood was sampled from orbital venous plexus and components were analyzed using the plasma separated from the blood. Total cholesterol levels were determined by using L type Wako Cholesterol (Wako Pure Chemical Industries, Ltd). Precipitation reagent for HDL cholesterol (Wako Pure Chemical Industries, Ltd.) was added to a part of the plasma to precipitate non-HDL lipoprotein, and cholesterol (HDL cholesterol) in the resulting supernatant was determined. The plasma anti-arteriosclerosis index [(HDL cholesterol/total cholesterol)×100] was calculated by using these cholesterol levels.
In the Table, “Total cholesterol lowering action (%)” represents the percent reduction (%) of total cholesterol level in the test compound administration group, when the total cholesterol level in the test compound non-administration group is taken as 100%. “Plasma anti-arteriosclerosis index-enhancing action (%)” represents the percent increase (%) of plasma anti-arteriosclerosis index in the test compound administration group, when the plasma anti-arteriosclerosis index in the test compound non-administration group is taken as 100%.

The inhibition in vivo is the percentage by which the read-out fell short of the control. What is called melting point is the temperature, or range, at which the solid turns liquid.

As to `Cc1oc(-c2ccccc2)nc1COc1ccc(COc2cccc(CC(=O)O)c2)cc1` [Example 1, 2-[3-[4-[(5-methyl-2-phenyl-4-oxazolyl)methoxy]benzyloxy]phenyl]acetic acid], the melting point is 159 to 160 °C. Further, in data set [1], the change in vivo at 0.005 % is 11% and the inhibition in vivo at 0.005 % stood at 7%.
Compound `CCOc1ccc(OCc2ccc(OCc3nc(-c4ccccc4)oc3C)cc2)cc1CCC(=O)O` [Example 7, 3-[2-ethoxy-5-[4-[(5-methyl-2-phenyl-4-oxazolyl)methoxy]benzyloxy]phenyl]propionic acid] gave a melting point of 129 to 130 °C. In data set [1], the change in vivo at 0.01 % worked out at 15% and the inhibition in vivo at 0.01 % is 17%.
`Cc1oc(-c2ccccc2)nc1COc1ccc(COc2ccccc2CC(=O)O)cc1` [Example 11, 2-[2-[4-[(5-methyl-2-phenyl-4-oxazolyl)methoxy]benzyloxy]phenyl]acetic acid] yielded a melting point of 153 to 154 °C. Also, in data set [1], the change in vivo at 0.005 % stood at 18% and the inhibition in vivo at 0.005 % was 23%.
On the same counts, the results for `Cc1ccc(OCc2ccc(OCc3nc(-c4ccccc4)oc3C)cc2)c(CC(=O)O)c1` [Example 15, 2-[5-methyl-2-[4-[(5-methyl-2-phenyl-4-oxazolyl)methoxy]benzyloxy]phenyl]acetic acid] are 115 to 116 °C, 4% and 25%.
On the same counts, the results for `Cc1oc(-c2ccccc2)nc1COc1ccc(COc2ccc(Cl)cc2CC(=O)O)cc1` [Example 18, 2-[5-chloro-2-[4-[(5-methyl-2-phenyl-4-oxazolyl)methoxy]benzyloxy]phenyl]acetic acid] are 160 to 161 °C, 12% and 23%.
On the same counts, the results for `COc1ccc(OCc2ccc(OCc3nc(-c4ccccc4)oc3C)cc2)c(CC(=O)O)c1` [Example 24, 2-[5-methoxy-2-[4-[(5-methyl-2-phenyl-4-oxazolyl)methoxy]benzyloxy]phenyl]acetic acid] are 134 to 136 °C, 17% and 10%.
On to `CCOc1ccc(OCc2ccc(OCc3nc(-c4ccccc4)oc3C)cc2)c(CC(=O)O)c1` [Example 26, 2-[5-ethoxy-2-[4-[(5-methyl-2-phenyl-4-oxazolyl)methoxy]benzyloxy]phenyl]acetic acid], for which the melting point was in the range of 122 to 123 °C. Moreover, in data set [1], the change in vivo at 0.01 % was determined as 16% and the inhibition in vivo at 0.01 % was determined as 20%.
`CCOc1ccc(OCc2ccc(OCc3nc(-c4ccccc4)oc3C)cc2)c(CCC(=O)O)c1` [Example 29, 3-[5-ethoxy-2-[4-[(5-methyl-2-phenyl-4-oxazolyl)methoxy]benzyloxy]phenyl]propionic acid] returned a melting point of 115 to 116 °C. Also, in data set [1], the change in vivo at 0.01 % is 20% and the inhibition in vivo at 0.01 % is 21%.
On the same counts, the results for `Cc1oc(-c2ccccc2)nc1COc1cccc(COc2cccc(CC(=O)O)c2)c1` [Example 32, 2-[[3-[3-(5-methyl-2-phenyl-4-oxazolyl)methoxy]benzyloxy]phenyl]acetic acid] are 101 to 102 °C, 10% and 2%.
Regarding `Cc1oc(-c2ccccc2)nc1COc1ccc(COc2ncccc2CC(=O)O)cc1` [Example 36, 2-[2-[4-[(5-methyl-2-phenyl-4-oxazolyl)methoxy]benzyloxy]-3-pyridyl]acetic acid], the melting point fell in the range of 144 to 145 °C. Further, in data set [1], the change in vivo at 0.005 % turned out to be 34% and the inhibition in vivo at 0.005 % came out at 19%.
On the same counts, the results for `Cc1oc(-c2ccccc2)nc1COc1ccc(COc2cccnc2CC(=O)O)cc1` [Example 37, 2-[3-[4-[(5-methyl-2-phenyl-4-oxazolyl)methoxy]benzyloxy]-2-pyridyl]acetic acid] are 115 to 116 °C (dec.), 19% and 15%.
Taken in the same sequence, the figures for `Cc1oc(-c2ccccc2)nc1COc1ccc(COc2ccccc2CC(=O)O)cn1` [Example 41, 2-[2-[[6-[(5-methyl-2-phenyl-4-oxazolyl)methoxy]-3-pyridyl]methoxy]phenyl]acetic acid] were 123 to 125 °C, 28% and 25%.
On the same counts, the results for `COc1cc(COc2ccccc2CC(=O)O)ccc1OCc1nc(-c2ccccc2)oc1C` [Example 48, 2-[2-[3-methoxy-4-[(2-phenyl-5-methyl-4-oxazolyl)methoxy]benzyloxy]phenyl]acetic acid] are 165 to 166 °C, 20% and 17%.
Compound `Cc1oc(-c2ccco2)nc1COc1ccc(COc2ccccc2CC(=O)O)cc1` [Example 50, 2-[2-[4-[[2-(2-furyl)-5-methyl-4-oxazolyl]methoxy]benzyloxy]phenyl]acetic acid] showed a melting point of 167 to 168 °C. In data set [1], the change in vivo at 0.005 % worked out at 15% and the inhibition in vivo at 0.005 % is 20%.
As for `O=C(O)Cc1ccccc1OCc1ccc(OCc2csc(-c3ccccc3)n2)cc1` [Example 51, 2-[2-[4-[(2-phenyl-4-thiazolyl)methoxy]benzyloxy]phenyl]acetic acid], the melting point lay within 115 to 116 °C. In data set [1], the change in vivo at 0.005 % was determined as 22% and the inhibition in vivo at 0.005 % was 24%.
Taken in the same sequence, the figures for `Cc1sc(-c2ccccc2)nc1COc1ccc(COc2ccccc2CC(=O)O)cc1` [Example 52, 2-[2-[4-[(5-methyl-2-phenyl-4-thiazolyl)methoxy]benzyloxy]phenyl]acetic acid] were 122 to 123 °C, 15% and 26%.
On the same counts, the results for `Cc1oc(-c2ccccc2)nc1CCOc1ccc(COc2ccccc2CC(=O)O)cc1` [Example 58, 2-[2-[4-[2-(5-methyl-2-phenyl-4-oxazolyl)ethoxy]benzyloxy]phenyl]acetic acid] are 141 to 142 °C, 21% and 20%.
On the same counts, the results for `Cc1oc(-c2ccccc2)nc1COc1cc(COc2cccc(CC(=O)O)c2)ccn1` [Example 62, 2-[3-[2-[(5-methyl-2-phenyl-4-oxazolyl)methoxy]-4-pyridylmethoxy]phenyl]acetic acid] are 148 to 149 °C, 15% and 9%.
`Cc1oc(-c2ccccc2)nc1COc1cc(COc2ccccc2CC(=O)O)on1` [Example 79, 2-[2-[3-(5-methyl-2-phenyl-4-oxazolylmethoxy)-5-isoxazoly]methoxylphenyl]acetic acid] had a melting point of 152 to 153 °C. In data set [1], the change in vivo at 0.005 % stood at 42% and the inhibition in vivo at 0.005 % was found to be 39%.
Taken in the same sequence, the figures for `Cc1oc(-c2ccccc2)nc1COc1ccc(COc2ncccc2CC(=O)O)cn1` [Example 88, 2-[2-[[6-[(5-methyl-2-phenyl-4-oxazolyl)methoxy]-3-pyridyl]methoxy]-3-pyridyl]acetic acid] were 147 to 148 °C, 22% and 10%.
Taken in the same sequence, the figures for `COc1cc(COc2ncccc2CC(=O)O)ccc1OCc1nc(-c2ccccc2)oc1C` [Example 91, 2-[2-[3-methoxy-4-[(2-phenyl-5-methyl-4-oxazolyl)methoxy]benzyloxy]-3-pyridyl]acetic acid] were 145 to 146 °C, 16% and 6%.
`Cc1oc(-c2ccco2)nc1COc1ccc(COc2ncccc2CC(=O)O)cc1` [Example 92, 2-[2-[4-[[2-(2-furyl)-5-methyl-4-oxazolyl]methoxy]benzyloxy]-3-pyridyl]acetic acid]: the melting point fell in the range of 151 to 152 °C. Further, in data set [1], the change in vivo at 0.005 % came to 23% and the inhibition in vivo at 0.005 % came out at 15%.
The compound `Cc1sc(-c2ccccc2)nc1COc1ccc(COc2ncccc2CC(=O)O)cc1` [Example 93, 2-[2-[4-[(5-methyl-2-phenyl-4-thiazolyl)methoxy]benzyloxy]-3-pyridyl]acetic acid] displayed a melting point of 128 to 129 °C. Further, in data set [1], the change in vivo at 0.005 % worked out at 17% and the inhibition in vivo at 0.005 % was found to be 16%.
On the same counts, the results for `Cc1oc(-c2ccccc2)nc1CCc1ccc(COc2ccccc2CC(=O)O)cc1` [Example 97, 2-[2-[4-[2-(5-methyl-2-phenyl-4-oxazolyl)ethyl]benzyloxy]phenyl]acetic acid] are 130 to 131 °C, 27% and 27%.
